The values that follow come from patent US10647713B2 (Nimbus Lakshmi, Inc., priority 2016, dated 2020).

human TYK2 (JH2domain-pseudokinase), sequence (P29597 556-888): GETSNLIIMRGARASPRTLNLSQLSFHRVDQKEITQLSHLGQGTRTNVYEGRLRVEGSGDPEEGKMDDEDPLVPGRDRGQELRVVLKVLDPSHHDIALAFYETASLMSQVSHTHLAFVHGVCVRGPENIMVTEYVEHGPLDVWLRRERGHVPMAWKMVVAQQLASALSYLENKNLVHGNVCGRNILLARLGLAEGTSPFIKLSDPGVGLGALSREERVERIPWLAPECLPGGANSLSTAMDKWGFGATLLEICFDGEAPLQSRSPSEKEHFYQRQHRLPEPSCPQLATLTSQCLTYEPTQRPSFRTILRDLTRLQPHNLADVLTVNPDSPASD

In the test the target is human TYK2 (JH2domain-pseudokinase) (Homo sapiens (Human), UniProt P29597). In words: TYK2 JH2 Domain Binding Assay (KINOMEscan, DiscoveRx). The following applies: 11-point dilution, duplicate. Here is the method:
Binding constants for compounds of the present invention against the JH2 domain were determined by the following protocol for a KINOMEscan® assay (DiscoveRx). A fusion protein of a partial length construct of human TYK2 (JH2domain-pseudokinase) (amino acids G556 to D888 based on reference sequence NP_003322.3) and the DNA binding domain of NFkB was expressed in transiently transfected HEK293 cells. From these HEK 293 cells, extracts were prepared in M-PER extraction buffer (Pierce) in the presence of Protease Inhibitor Cocktail Complete (Roche) and Phosphatase Inhibitor Cocktail Set II (Merck) per manufacturers' instructions. The TYK2 (JH2domain-pseudokinase) fusion protein was labeled with a chimeric double-stranded DNA tag containing the NFkB binding site (5′-GGGAATTCCC-3′) fused to an amplicon for qPCR readout, which was added directly to the expression extract (the final concentration of DNA-tag in the binding reaction is 0.1 nM).
Streptavidin-coated magnetic beads (Dynal M280) were treated with a biotinylated small molecule ligand for 30 minutes at room temperature to generate affinity resins the binding assays. The liganded beads were blocked with excess biotin and washed with blocking buffer (SeaBlock (Pierce), 1% BSA, 0.05% Tween 20, 1 mM DTT) to remove unbound ligand and to reduce nonspecific binding.
The binding reaction was assembled by combining 16 μl of DNA-tagged kinase extract, 3.8 μl liganded affinity beads, and 0.18 μl test compound (PBS/0.05% Tween 20/10 mM DTT/0.1% BSA/2 μg/ml sonicated salmon sperm DNA)]. Extracts were used directly in binding assays without any enzyme purification steps at a ≥10,000-fold overall stock dilution (final DNA-tagged enzyme concentration <0.1 nM). Extracts were loaded with DNA-tag and diluted into the binding reaction in a two step process. First extracts were diluted 1:100 in 1× binding buffer (PBS/0.05% Tween 20/10 mM DTT/0.1% BSA/2 μg/ml sonicated salmon sperm DNA) containing 10 nM DNA-tag. This dilution was allowed to equilibrate at room temperature for 15 minutes and then subsequently diluted 1:100 in 1× binding buffer. Test compounds were prepared as 111× stocks in 100% DMSO. Kds were determined using an 11-point 3-fold compound dilution series with three DMSO control points. All compounds for Kd measurements are distributed by acoustic transfer (non-contact dispensing) in 100% DMSO. The compounds were then diluted directly into the assays such that the final concentration of DMSO was 0.9%. All reactions performed in polypropylene 384-well plates. Each was a final volume of 0.02 mL. Assays were incubated with shaking for 1 hour at room temperature. Then the beads were pelleted and washed with wash buffer (1×PBS, 0.05% Tween 20) to remove displaced kinase and test compound. The washed based were re-suspended in elution buffer (1×PBS, 0.05% Tween 20, 0.5 μM non-biotinylated affinity ligand) and incubated at room temperature with shaking for 30 minutes. The kinase concentration in the eluates was measured by qPCR. qPCR reactions were assembled by adding 2.5 μL of kinase eluate to 7.5 μL of qPCR master mix containing 0.15 μM amplicon primers and 0.15 μM amplicon probe. The qPCR protocol consisted of a 10 minute hot start at 95° C., followed by 35 cycles of 95° C. for 15 seconds, 60° C. for 1 minute.
Test compounds were prepared as 111× stocks in 100% DMSO. Kds were determined using an 11-point 3-fold compound dilution series with three DMSO control points. All compounds for Kd measurements are distributed by acoustic transfer (non-contact dispensing) in 100% DMSO. The compounds were then diluted directly into the assays such that the final concentration of DMSO was 0.9%. The Kds were determined using a compound top concentration of 30,000 nM. Kd measurements were performed in duplicate.
Binding constants (Kds) were calculated with a standard dose-response curve using the Hill equation: […]
The Hill Slope was set to −1. […]
As a reminder, the Kd is the free concentration of one partner at which half of the binding sites on the other are occupied at equilibrium, for simple one-to-one binding. Low readings indicate higher affinity, high ones lower affinity. Molecule `COc1c(Nc2cc(Nc3ccc(C)nn3)nc3[nH]c(C(F)F)nc23)cccc1-c1ccn(C)n1` [I-26, 2-(difluoromethyl)-N7-(2-methoxy-3-(1-methyl-1H-pyrazol-3-yl)phenyl)-N5-(6-methylpyridazin-3-yl)-3H-imidazo[4,5-b]pyridine-5,7-diamine] came in with a Kd of 0.1 to 0.5 nM. The figure for `COc1c(Nc2cc(Nc3cncc(C#N)n3)nc3[nH]c(C(F)F)nc23)cccc1-c1ccn(C)n1` [I-27, 6-((2-(difluoromethyl)-7-((2-methoxy-3-(1-methyl-1H-pyrazol-3-yl)phenyl)amino)-3H-imidazo[4,5-b]pyridin-5-yl)amino)pyrazine-2-carbonitrile] is 1 to 10 nM; for `COc1ccccc1Nc1cc(NC(=O)C2CC2)nc2[nH]c(C(F)F)nc12` [I-28, N-(2-(difluoromethyl)-7-((2-methoxyphenyl)amino)-3H-imidazo[4,5-b]pyridin-5-yl)cyclopropanecarboxamide] it is > 10 nM; for `COc1c(C#N)cccc1Nc1cc(NC(=O)C2CC2)nc2[nH]c(C(F)F)nc12` [I-29, N-(7-((3-cyano-2-methoxyphenyl)amino)-2-(difluoromethyl)-3H-imidazo[4,5-b]pyridin-5-yl)cyclopropanecarboxamide] it is > 10 nM. Consider `COc1c(Nc2cc(Nc3cncc(C#N)n3)nc3[nH]c(C(F)F)nc23)cccc1-c1nnn(C)n1` [I-30, 6-((2-(difluoromethyl)-7-((2-methoxy-3-(2-methyl-2H-tetrazol-5-yl)phenyl)amino)-3H-imidazo[4,5-b]pyridin-5-yl)amino)pyrazine-2-carbonitrile], for which the dissociation constant Kd lay within 1 to 10 nM. For `COc1c(Nc2cc(Nc3ccc(N4CCC4)cn3)nc3[nH]c(C(F)F)nc23)cccc1-c1ccn(C)n1` [I-31, N5-(5-(azetidin-1-yl)pyridin-2-yl)-2-(difluoromethyl)-N7-(2-methoxy-3-(1-methyl-1H-pyrazol-3-yl)phenyl)-3H-imidazo[4,5-b]pyridine-5,7-diamine] the value was 1 to 10 nM.

Molecule `COc1c(Nc2cc(Nc3cc(C)cc(C#N)n3)nc3[nH]c(C(F)F)nc23)cccc1-c1nnn(C)n1` [I-32, 6-((2-(difluoromethyl)-7-((2-methoxy-3-(2-methyl-2H-tetrazol-5-yl)phenyl)amino)-3H-imidazo[4,5-b]pyridin-5-yl)amino)-4-methylpicolinonitrile] displayed a Kd of 0.5 to 1 nM. With `COc1c(Nc2cc(Nc3cc(C)cc(C#N)n3)nc3[nH]c(C(F)F)nc23)cccc1-c1ccn(C)n1` [I-33, 6-((2-(difluoromethyl)-7-((2-methoxy-3-(1-methyl-1H-pyrazol-3-yl)phenyl)amino)-3H-imidazo[4,5-b]pyridin-5-yl)amino)-4-methylpicolinonitrile], the dissociation constant (Kd) was in the range of 0.5 to 1 nM. For `COc1c(Nc2cc(NC(=O)C3CC3)nc3[nH]c(C(F)F)nc23)cccc1-c1cnn(C)c1` [I-34, N-(2-(difluoromethyl)-7-((2-methoxy-3-(1-methyl-1H-pyrazol-4-yl)phenyl)amino)-3H-imidazo[4,5-b]pyridin-5-yl)cyclopropanecarboxamide] the value was > 10 nM.

Molecule `COc1cc(C(=O)N2CCCC2)ccc1Nc1cc(NC(=O)C2CC2)nc2[nH]c(C(F)F)nc12` [I-35, N-(2-(difluoromethyl)-7-((2-methoxy-4-(pyrrolidine-1-carbonyl)phenyl)amino)-3H-imidazo[4,5-b]pyridin-5-yl)cyclopropanecarboxamide] returned a dissociation constant Kd of 1 to 10 nM. For `COc1c(Nc2cc(Nc3ccc(C(=O)N4CCCC4)c(C(F)(F)F)n3)nc3[nH]c(C(F)F)nc23)cccc1-c1nnn(C)n1` [I-36, (6-((2-(difluoromethyl)-7-((2-methoxy-3-(2-methyl-2H-tetrazol-5-yl)phenyl)amino)-3H-imidazo[4,5-b]pyridin-5-yl)amino)-2-(trifluoromethyl)pyridin-3-yl)(pyrrolidin-1-yl)methanone] the value was 0.1 to 0.5 nM. The figure for `COc1c(Nc2cc(Nc3ccc(N4CCCC4=O)c(C#N)n3)nc3[nH]c(C(F)F)nc23)cccc1-c1nnn(C)n1` [I-37, 6-((2-(difluoromethyl)-7-((2-methoxy-3-(2-methyl-2H-tetrazol-5-yl)phenyl)amino)-3H-imidazo[4,5-b]pyridin-5-yl)amino)-3-(2-oxopyrrolidin-1-yl)picolinonitrile] is 0.1 to 0.5 nM; for `COc1c(Nc2cc(Nc3cnc(C)c(C#N)n3)nc3[nH]c(C(F)F)nc23)cccc1-c1nnn(C)n1` [I-38, 6-((2-(difluoromethyl)-7-((2-methoxy-3-(2-methyl-2H-tetrazol-5-yl)phenyl)amino)-3H-imidazo[4,5-b]pyridin-5-yl)amino)-3-methylpyrazine-2-carbonitrile] it is 1 to 10 nM. On to `COc1c(Nc2cc(Nc3ccc(N4CC[C@H](OC)C4)c(C#N)n3)nc3[nH]c(C(F)F)nc23)cccc1-c1nnn(C)n1` [I-39, (S)-6-((2-(difluoromethyl)-7-((2-methoxy-3-(2-methyl-2H-tetrazol-5-yl)phenyl)amino)-3H-imidazo[4,5-b]pyridin-5-yl)amino)-3-(3-methoxypyrrolidin-1-yl)picolinonitrile], for which the Kd lay within 0.1 to 0.5 nM. `COc1c(Nc2cc(Nc3ccc(N4CCC4)c(C#N)n3)nc3[nH]c(C(F)F)nc23)cccc1-c1nnn(C)n1` [I-40, 3-(azetidin-1-yl)-6-((2-(difluoromethyl)-7-((2-methoxy-3-(2-methyl-2H-tetrazol-5-yl)phenyl)amino)-3H-imidazo[4,5-b]pyridin-5-yl)amino)picolinonitrile] came in with a Kd of 0.1 to 0.5 nM. The figure for `COc1c(Nc2cc(NC(=O)C3CC3)nc3[nH]c(C(F)F)nc23)cccc1-c1nc(C)nn1C` [I-41, N-(2-(difluoromethyl)-7-((3-(1,3-dimethyl-1H-1,2,4-triazol-5-yl)-2-methoxyphenyl)amino)-3H-imidazo[4,5-b]pyridin-5-yl)cyclopropanecarboxamide] is > 10 nM; for `COc1c(Nc2cc(Nc3ccc(C(C)C)c(C#N)n3)nc3[nH]c(C(F)F)nc23)cccc1-c1nnn(C)n1` [I-42, 6-((2-(difluoromethyl)-7-((2-methoxy-3-(2-methyl-2H-tetrazol-5-yl)phenyl)amino)-3H-imidazo[4,5-b]pyridin-5-yl)amino)-3-isopropylpicolinonitrile] it is 1 to 10 nM. For `Cc1ccc(Nc2cc(Nc3ccccc3N(C)S(C)(=O)=O)c3nc(C(F)F)[nH]c3n2)nn1` [I-43, N-(2-((2-(difluoromethyl)-5-((6-methylpyridazin-3-yl)amino)-3H-imidazo[4,5-b]pyridin-7-yl)amino)phenyl)-N-methylmethanesulfonamide] the value was 0.1 to 0.5 nM.

As to `CN(c1ccccc1Nc1cc(Nc2cccc(C#N)n2)nc2[nH]c(C(F)F)nc12)S(C)(=O)=O` [I-44, N-(2-((5-((6-cyanopyridin-2-yl)amino)-2-(difluoromethyl)-3H-imidazo[4,5-b]pyridin-7-yl)amino)phenyl)-N-methylmethanesulfonamide], the Kd is < 0.1 nM.

The molecule `Cc1cc(Nc2cc(Nc3ccccc3N(C)S(C)(=O)=O)c3nc(C(F)F)[nH]c3n2)nc(C)n1` [I-45, N-(2-((2-(difluoromethyl)-5-((2,6-dimethylpyrimidin-4-yl)amino)-3H-imidazo[4,5-b]pyridin-7-yl)amino)phenyl)-N-methylmethanesulfonamide] registered a Kd of 0.1 to 0.5 nM. For the molecule `COc1c(Nc2cc(Nc3ccc(NCCCCl)c(C#N)n3)nc3[nH]c(C(F)F)nc23)cccc1-c1nnn(C)n1` [I-46, 3-((3-chloropropyl)amino)-6-((2-(difluoromethyl)-7-((2-methoxy-3-(2-methyl-2H-tetrazol-5-yl)phenyl)amino)-3H-imidazo[4,5-b]pyridin-5-yl)amino)picolinonitrile], the Kd is 0.5 to 1 nM.
